How the values were obtained:
Type in all cases: in vivo, BALB/c mice
[1] = test system: CD8+ T cells; assay: Flow cytometric CD62L/CD44 phenotype of CD8+ T cells in peripheral blood and bone marrow of CT26 immune mice (MIL mobilization); conditions: 12 hours after final dose
Protocol: (§1) Protocol for Detection and Mobilization of MILs in the CT-26 tumor model: GMI-1271 is a potent, small-molecule, glycomimetic antagonist of E-selectin. GMI-1359 is a potent, small-molecule glycomimetic dual antagonist, targeting E-selectin and CXCR4. The effects of inhibiting either E-selectin with GMI-1271 or E-selectin and CXCR4 with GMI-1359 on MIL mobilization was tested in BALB/c mice that had been induced to reject the syngeneic CT26 colon carcinoma via anti-CTLA-4 T cell checkpoint antibody.
Treatment with anti-CTLA-4 for all mice implanted with CT26.WT began on Day 3. All mice were dosed intraperitoneally on Days 3, 6, 10, 13, and 17. All mice were dosed according to individual body weight on the day of treatment (0.2 mg/20 g).
On Day 25, mice without tumors following CTLA-4 treatment were distributed into the four “Tumor Immune” treatment groups indicated in Table 1 such that the mean body weight within each group was within 10% of the overall mean.
(§2) Treatment for “Tumor Immune” groups 1-4 began on Day 25. The Vehicle was dosed intraperitoneally every 12 hours for 3 days (Days 25-27). GMI-1271 and GMI-1359 were dosed intraperitoneally at 40 mg/kg every 12 hours for 3 days (Days 25-27). G-CSF was dosed at 0.125 mg/kg subcutaneously every 12 hours for 3 days (Days 25-27).
A “Nonimmune” group 5 was populated with age-matched, naive non-tumor bearing mice.
(§3) At 12 hours after the final dose of test agents, all mice in groups 1-5 (treatment “Tumor Immune” groups 1-4 and control “Nonimmune” group 5) were euthanized for blood and bone marrow collection.
(§4) Flow cytometric analysis was used to determine CD62L and CD44 expression on CD8+ T cells in whole blood and bone marrow samples. Secondary analysis included AH-1 Dextramer analysis on the three tissue types and IFNγ production in pooled blood and bone marrow samples. Samples were acquired using a 4 laser, 14 color Attune NxT Flow Cytometer with autosampler. CD62L and CD44 events were gated on CDS+ T cells.

[2] = test system: CD8+ T-cells in peripheral blood; assay: Percent of CD8+ lymphocytes in peripheral blood armed to produce IFNγ; conditions: CT26 immune mice; GMI compounds 40 mg/kg IP, G-CSF 0.125 mg/kg SC, every 12 hours for 3 days; 12 hours after final dose; FIG. 3
Protocol: as §1, §2, §3
as §4, with “CD62L and CD44 events were gated on CDS+ T cells.” left out

[3] = test system: CD8+ MILs; assay: IFNγ production by bone marrow CD8+ MILs following in vitro stimulation with irradiated CT-26 tumor cells or AH1; conditions: tumor immunized mice, 40 mg/kg IP every 12 hours for 3 days, FIG. 2
Protocol: as §1, §2, §3
as §4, with “CD62L and CD44 events were gated on CDS+ T cells.” left out

CC[C@H]1C[C@@H](C(=O)NCCNC(=O)CCOCCOCCOCCOCCOCCOCCOCCOCCOCCOCCOCCOC)C[C@@H](O[C@@H]2O[C@H](CO)[C@H](O)[C@H](O[C@@H](CC3CCCCC3)C(=O)[O-])[C@H]2NC(C)=O)[C@@H]1O[C@@H]1O[C@@H](C)[C@@H](O)[C@@H](O)[C@@H]1O.[Na+] [GMI-1271]
redistribution of effector memory (EM, CD62L-CD44+) CD8+ T cells ([1]; 40 mg/kg IP every 12 hours for 3 days, FIG. 1C): not effected
mobilization of naïve (CD62L+CD44−) CD8+ T cells into the peripheral blood ([1]; GMI compounds 40 mg/kg IP, G-CSF 0.125 mg/kg SC, every 12 hours for 3 days, FIG. 1A): mobilized
mobilization of central memory (CM, CD62L+CD44+) CD8+ T cells into the peripheral blood ([1]; GMI compounds 40 mg/kg IP, G-CSF 0.125 mg/kg SC, every 12 hours for 3 days, FIG. 1B): mobilized
percentage of CD8+ T-cells in peripheral blood primed to produce IFNγ [2]: markedly increased
functional activity of bone marrow CD8+ MILs (IFNγ production) after in vitro stimulation [3]: primed to respond to both AH1 and whole tumor cells
